Consider three compounds from US7387880B2, “Method for monitoring resting and activated platelets in unfixed blood samples” (PPD Biomarker Discovery Sciences, LLC, priority 2000, dated 2008).

Experiment [1] relates to CD62P on platelets. Briefly: Platelet stimulation, CD62P expression by MLSC. The format is cell-based, human. The procedure: Platelet stimulation. Thrombin stimulation was carried out on either washed platelets or 1:10 diluted whole blood in the presence of the fibrinogen cascade inhibitor peptide glycine-proline-arginine-proline (GPRP, 2 mM final concentration). Thrombin (5 U/ml) was added to 10 μl of sample in 75 μl Tyrode's buffer containing the GPRP (final total volume of 100 μl). Because the CTAD tubes contain reversible inhibitors of platelet activation, it was initially determined that a 10-fold dilution of the whole blood was sufficient to reduce the inhibitors below effective concentration and permit stimulation. […] Next, the reaction was incubated in a 37° C. water bath for 5 or 10 minutes and subsequently diluted to 1000 μl […] with Tyrode's buffer supplemented with 1.5 mM theophylline and 0.37 mM adenosine (final concentration). […]
Staining for MLSC. […] Twenty-one microliters of diluted sample was loaded into Flex32 capillary array and analyzed by Surroscan MLSC. […] Images were converted to flow cytometry standard (fcs) format with in-house software and analyzed with FlowJo™ cytometry analysis software (Tree Star, Inc., San Carlos, Calif.). Fluorescence intensities are compensated for spectral overlap of the dyes. […]

Experiment [2] concerns platelets. Nature of the experiment: Pan platelet surface antigen expression (CD9, GPIIIA, GPIIB), EDTA versus CTAD samples, MLSC. Type of experiment: cell-based, human. The procedure:
(§1) Staining for MLSC. For whole blood platelet stains, 10 μl of whole blood was diluted into 990 μl of Tyrode's buffer supplemented with 1.5 mM theophylline and 0.37 mM adenosine for a final dilution of 1:100. Twenty microliters of diluted whole blood, thrombin-stimulated samples, or control samples were added to 96 well micro-titer plates containing 5 μl of the appropriate reagent cocktail. The cells were incubated in the dark at room temperature for 20 minutes. At the end of the incubation, 50 μl of modified PBS/BSA buffer supplemented with theophylline (1.5 mM)/adenosine (0.37 mM) (to prevent activation), and Zwittergent (50 mM) was added to all the wells and mixed thoroughly. Twenty-one microliters of diluted sample was loaded into Flex32 capillary array and analyzed by Surroscan MLSC. The assays are performed in homogeneous mode, without removal of unbound reagent. […] Images were converted to flow cytometry standard (fcs) format with in-house software and analyzed with FlowJo™ cytometry analysis software (Tree Star, Inc., San Carlos, Calif.). Fluorescence intensities are compensated for spectral overlap of the dyes.
(§2) Previous research has shown that addition of platelet inhibitors to the anti-coagulant greatly reduces the activation state of human platelets prior to testing. […] The sample was then analyzed using MLSC. […]

The test system of experiment [3] is platelets. Nature of the experiment: Total platelet count in EDTA and CTAD tubes, MLSC. The format is cell-based, human. Conditions: in the tubes. The protocol: as §1, §2
The next experiment relates to platelet factor 4 (PF4). Briefly: Platelet factor 4 in plasma by chemiluminescent ELISA. Further details: species or system human. For orientation: In an ELISA, binding on a coated surface is turned into a signal by an enzyme label.
The test system of experiment [4] is CD62P on platelets. Nature of the experiment: CD62P activation marker on platelets in unfixed whole blood drawn into EDTA or CTAD tubes, MLSC. Conditions: for Mean Intensity CD62P: mean relative intensity, entire platelet population. Type of experiment: cell-based, human. The protocol:
(§3) Staining for MLSC. For whole blood platelet stains, 10 μl of whole blood was diluted into 990 μl of Tyrode's buffer supplemented with 1.5 mM theophylline and 0.37 mM adenosine for a final dilution of 1:100. Twenty microliters of diluted whole blood, thrombin-stimulated samples, or control samples were added to 96 well micro-titer plates containing 5 μl of the appropriate reagent cocktail. The cells were incubated in the dark at room temperature for 20 minutes. At the end of the incubation, 50 μl of modified PBS/BSA buffer supplemented with theophylline (1.5 mM)/adenosine (0.37 mM) (to prevent activation), and Zwittergent (50 mM) was added to all the wells and mixed thoroughly. Twenty-one microliters of diluted sample was loaded into Flex32 capillary array and analyzed by Surroscan MLSC. The assays are performed in homogeneous mode, without removal of unbound reagent. After all dilutions, the fluorescent platelet counts per capillary are about 1,000-2,000, comfortably in the range of 10 to 12,000 that is appropriate for the cytometry. This platelet count level provides appropriate counting statistics and avoids coincident events. Images were converted to flow cytometry standard (fcs) format with in-house software and analyzed with FlowJo™ cytometry analysis software (Tree Star, Inc., San Carlos, Calif.). Fluorescence intensities are compensated for spectral overlap of the dyes.
(§4) Previous research has shown that addition of platelet inhibitors to the anti-coagulant greatly reduces the activation state of human platelets prior to testing. Kuhne et al., Am. J. Hematol. 50:40-5 (1995); Mody et al., Transfus.Med. 9:147-54 (1999). […] Blood was obtained from a volunteer (set of 5 volunteers) and processed within 4 hours. This was done without fixation in order to maintain epitope integrity and allow for further activation studies. The samples were incubated with antibodies against platelet surface activation markers CD62P and CD63, as well as antibodies against GPIIIA, an antigen present on all platelets. All platelets were identified with GPIIIa (Cy5.5). The sample was then analyzed using MLSC. Gates for the Cy5-CD62P and Cy5-CD63 positive events were drawn based upon MOPC-21 control antibody staining.

Experiment [5] has as its system CD63 on platelets. Briefly: CD63 activation marker on platelets in unfixed whole blood drawn into EDTA or CTAD tubes, MLSC. The format is cell-based, human. The conditions noted are these: for Mean Intensity CD63: mean relative intensity, entire platelet population. The protocol: as §3, §4
For experiment [6], the system named is CD63 on platelets. Briefly: Platelet stimulation, CD63 expression by MLSC. The format is cell-based, human. The procedure: Platelet stimulation. Thrombin stimulation was carried out on either washed platelets or 1:10 diluted whole blood in the presence of the fibrinogen cascade inhibitor peptide glycine-proline-arginine-proline (GPRP, 2 mM final concentration). Thrombin (5 U/ml) was added to 10 μl of sample in 75 μl Tyrode's buffer containing the GPRP (final total volume of 100 μl). Because the CTAD tubes contain reversible inhibitors of platelet activation, it was initially determined that a 10-fold dilution of the whole blood was sufficient to reduce the inhibitors below effective concentration and permit stimulation. […] Next, the reaction was incubated in a 37° C. water bath for 5 or 10 minutes and subsequently diluted to 1000 μl […] with Tyrode's buffer supplemented with 1.5 mM theophylline and 0.37 mM adenosine (final concentration). In order to stop the stimulation and prevent non-specific activation of the control and test samples caused by the handling and staining techniques, theophylline and adenosine were added to the samples. A control sample lacking only the thrombin was run in parallel.
as §1, with “At the end of the incubation, 50 μl of modified PBS/BSA buffer supplemented with theophylline (1.5 mM)/adenosine (0.37 mM) (to prevent activation), and Zwittergent (50 mM) was added to all the wells and mixed thoroughly.” left out, “MLSC.” for “MLSC. The assays are performed in homogeneous mode, without removal of unbound reagent.”, “dyes. […]” for “dyes.”

The test system of experiment [7] is CD63 on platelets. Conditions: thrombin; expected value; cited from earlier work.
The subject of experiment [8] is CD62P on platelets. Conditions: thrombin; expected value; cited from earlier work.
[9] abbreviates: 24 hr from draw, average of 4 measurements.
Where [10] appears, read: 48 hr from draw, average of 5 subjects.
[11] abbreviates: thrombin 5 U/ml, 5 minute activation, whole blood 1:10 with GPRP, average of 19 to 22 subjects.

Procedure for platelet factor 4 (PF4): Platelet Factor 4 was measured by chemiluminescent using ELISA. Antibodies were obtained from U.S. Biologicals (Swampscott, Mass.) and Affinity Biologicals Enzyme Research Lab. (Southbend, Ind.), recombinant standard from Chemicon (Temecula, Calif.). Briefly, Corning black opaque 96 well microtiter plates were coated with rabbit polyclonal anti-PF4 (human) overnight at 4° C. Plates were washed and samples or standards were added to the wells and allowed to incubate at room temperature. After washing, biotinylated polyclonal sheep anti-PF4 (human) was added followed by washing and the addition of avidin-alkaline Phosphatase. Plates were washed and the CDP-Star R (Tropix, Bedford, Mass.)) substrate added, allowed to develop and read on the Wallac Victor plate reader. The assay sensitivity of the assay is 20 pg/ml.
PF4 expression was determined by ELISA (sensitivity of 20 pg/ml).

Turning to `Nc1ncnc2c1ncn2[C@@H]1O[C@H](COP(=O)(O)OP(=O)(O)O)[C@@H](O)[C@H]1O` [ADP, adenosine diphosphate], the “platelets expressing CD62P” value with CD62P on platelets [1] (30-minute stimulation with ADP) is listed as “greater than 60%”.
As to `O=C(O)CN(CCN(CC(=O)O)CC(=O)O)CC(=O)O` [EDTA, Ethylene-diamino-tetra-acetic acid], the “mean fluorescence intensity of GPIIB, lower in EDTA compared to CTAD” value in the experiment with platelets [2] (EDTA relative to CTAD) is on record as “about 40%”. Further, the “differences in expression of pan surface antigens CD9 or GPIIIA on platelets” value in the experiment on platelets [2] (between EDTA and CTAD samples) is recorded as “no observable differences”. Besides, the “change in total platelet count from 4 to 48 hours” value with platelets [3] is “small but significant decrease”. Besides, the “PF4 release, times greater in EDTA than in CTAD samples” value with platelet factor 4 (PF4) (EDTA relative to CTAD, p<0.05) came to 5 times. The compound further showed a PF4 in plasma in the experiment on platelet factor 4 (PF4) (average of 5 individuals, matched EDTA and CTAD draws) of 627 ± 449 pg/mL. The “% Positive CD62P” value is 49 ± 20 % with CD62P on platelets [4] (setting [9]); 41 ± 4.8 % with CD62P on platelets [4] (setting [10]); 37 ± 17 % in the experiment on CD62P on platelets [4] (<4 hr from draw, platelets identified with GPIIIA, average of 5 subjects). Further, the entries for the “Mean Intensity CD62P” value in the experiment with CD62P on platelets [4] (24 hr from draw), with CD62P on platelets [4] (48 hr from draw) and in the experiment on CD62P on platelets [4] (<4 hr from draw) were 910 ± 130, 900 ± 60 and 1110 ± 230, respectively. The “range of platelet activation levels observed” value in the experiment with CD62P on platelets [4] (EDTA samples, all time points) is recorded as 8 to 50%. Moreover, the “platelets positive for CD62P” value with CD62P on platelets [4] (matched samples analyzed over 48 hours) is 40-50%. Also, the “% Positive CD63” value in the experiment on CD63 on platelets [5] (setting [9]) turned out to be 37 ± 22%; in the experiment with CD63 on platelets [5] (setting [10]), 15 ± 7.0 %; with CD63 on platelets [5] (<4 hr from draw, average of 5 subjects), 22 ± 20 %. Besides, the “Mean Intensity CD63” value with CD63 on platelets [5] (24 hr from draw) is on record as 690 ± 77; in the experiment on CD63 on platelets [5] (48 hr from draw) it was 680 ± 42; with CD63 on platelets [5] (<4 hr from draw), 760 ± 43.
For thrombin, in the experiment on CD63 on platelets [6] (five minute stimulation with thrombin), the “expression level of CD63 on platelets after stimulation” value is reported as “greatly increased”. Moreover, the “Observed CD63 positive platelets” value in the experiment on CD63 on platelets [6] (setting [11]) is 142,000 ± 40,000 platelets/μl. Moreover, the “% of total platelets expressing CD63” value with CD63 on platelets [6] (thrombin activation (5 U/ml, 5 minute), CTAD whole blood) was determined as 72 ± 8.2%. The “Expected % CD63 positive” value with CD63 on platelets [7] is above 80%. Moreover, the “Expected % CD62P positive” value with CD62P on platelets [8] is reported as above 95%. In addition, the “Observed CD62P positive platelets” value with CD62P on platelets [1] (setting [11]) is given as 192,000 ± 53,000 platelets/μl.
